{"source": "ChEMBL document CHEMBL1201862", "about": "“PubChem BioAssay data set” (2004)", "assay_in_all_cases": "DTP human tumour cell line panel, 48 h", "key": {"786-0": {"system": "786-0"}, "A498": {"system": "A498"}, "A549": {"system": "A549"}, "ACHN": {"system": "ACHN"}, "CAKI-1": {"system": "CAKI-1"}, "CCRF-CEM": {"system": "CCRF-CEM"}, "COLO 205": {"system": "COLO 205"}, "DLD-1": {"system": "DLD-1"}, "DMS-114": {"system": "DMS-114"}, "DMS-273": {"system": "DMS-273"}, "EKVX": {"system": "EKVX"}, "HCC 2998": {"system": "HCC 2998"}, "HCT-15": {"system": "HCT-15"}, "HL-60": {"system": "HL-60"}, "HOP-62": {"system": "HOP-62"}, "HOP-92": {"system": "HOP-92"}, "HT-29": {"system": "HT-29"}, "IGROV-1": {"system": "IGROV-1"}, "K562": {"system": "K562"}, "KM-20L2": {"system": "KM-20L2"}, "KM12": {"system": "KM12"}, "LOX IMVI": {"system": "LOX IMVI"}, "MOLT-4": {"system": "MOLT-4"}, "Malme-3M": {"system": "Malme-3M"}, "NCI-H226": {"system": "NCI-H226"}, "NCI-H23": {"system": "NCI-H23"}, "NCI-H460": {"system": "NCI-H460"}, "NCI-H522": {"system": "NCI-H522"}, "OVCAR-3": {"system": "OVCAR-3"}, "OVCAR-5": {"system": "OVCAR-5"}, "OVCAR-8": {"system": "OVCAR-8"}, "RPMI-8226": {"system": "RPMI-8226"}, "RXF 393": {"system": "RXF 393"}, "RXF 631": {"system": "RXF 631"}, "SF-268": {"system": "SF-268"}, "SF-295": {"system": "SF-295"}, "SK-MEL-28": {"system": "SK-MEL-28"}, "SK-MEL-2": {"system": "SK-MEL-2"}, "SK-MEL-5": {"system": "SK-MEL-5"}, "SK-OV-3": {"system": "SK-OV-3"}, "SN12C": {"system": "SN12C"}, "SNB-19": {"system": "SNB-19"}, "SNB-75": {"system": "SNB-75"}, "SNB-78": {"system": "SNB-78"}, "SW-620": {"system": "SW-620"}, "TK-10": {"system": "TK-10"}, "U-251": {"system": "U-251"}, "UACC-257": {"system": "UACC-257"}, "UACC-62": {"system": "UACC-62"}, "UO-31": {"system": "UO-31"}}, "note": "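How tested: cells in 96-well plates exposed to compound for 48 hours at five concentrations. At the GI50, growth is halved.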 Calls of active or inactive are those of the source. Cut-off read from the data, not from the text of the source: active = GI50 up to about 1.1 µM and inactive = higher.", "data": [{"smiles": "O=C(c1ccc(Cl)cc1)c1ccc(OCCCCCCCCCCOc2ccc(C(=O)c3ccc(Cl)cc3)cc2)cc1", "values": [{"measurement": "GI50", "setting": "786-0", "value": "> 100 µM (inactive)"}, {"measurement": "GI50", "setting": "A498", "value": "> 100 µM (inactive)"}, {"measurement": "GI50", "setting": "A549", "value": "> 100 µM (inactive)"}, {"measurement": "GI50", "setting": "ACHN", "value": "> 100 µM (inactive)"}, {"measurement": "GI50", "setting": "CAKI-1", "value": "> 100 µM (inactive)"}, {"measurement": "GI50", "setting": "CCRF-CEM", "value": "> 100 µM (inactive)"}, {"measurement": "GI50", "setting": "COLO 205", "value": "> 100 µM (inactive)"}, {"measurement": "GI50", "setting": "DLD-1", "value": "> 100 µM (inactive)"}, {"measurement": "GI50", "setting": "DMS-114", "value": "> 100 µM (inactive)"}, {"measurement": "GI50", "setting": "DMS-273", "value": "> 100 µM (inactive)"}, {"measurement": "GI50", "setting": "EKVX", "value": "> 100 µM (inactive)"}, {"measurement": "GI50", "setting": "HCC 2998", "value": "> 100 µM (inactive)"}, {"measurement": "GI50", "setting": "HCT-15", "value": "> 100", "unit": "µM"}, {"measurement": "GI50", "setting": "HL-60", "value": "> 100 µM (inactive)"}, {"measurement": "GI50", "setting": "HOP-62", "value": "> 100 µM (inactive)"}, {"measurement": "GI50", "setting": "HOP-92", "value": "> 100 µM (inactive)"}, {"measurement": "GI50", "setting": "HT-29", "value": "> 100 µM (inactive)"}, {"measurement": "GI50", "setting": "IGROV-1", "value": "> 100 µM (inactive)"}, {"measurement": "GI50", "setting": "K562", "value": "> 100 µM (inactive)"}, {"measurement": "GI50", "setting": "KM-20L2", "value": "> 100 µM (inactive)"}, {"measurement": "GI50", "setting": "KM12", "value": "> 100 µM (inactive)"}, {"measurement": "GI50", "setting": "LOX IMVI", "value": "> 100 µM (inactive)"}, {"measurement": "GI50", "setting": "MOLT-4", "value": "> 100 µM (inactive)"}, {"measurement": "GI50", "setting": "Malme-3M", "value": "> 100 µM (inactive)"}, {"measurement": "GI50", "setting": "NCI-H226", "value": "> 100 µM (inactive)"}, {"measurement": "GI50", "setting": "NCI-H23", "value": "> 100 µM (inactive)"}, {"measurement": "GI50", "setting": "NCI-H460", "value": "> 100 µM (inactive)"}, {"measurement": "GI50", "setting": "NCI-H522", "value": "> 100 µM (inactive)"}, {"measurement": "GI50", "setting": "OVCAR-3", "value": "> 100 µM (inactive)"}, {"measurement": "GI50", "setting": "OVCAR-5", "value": "> 100 µM (inactive)"}, {"measurement": "GI50", "setting": "OVCAR-8", "value": "> 100 µM (inactive)"}, {"measurement": "GI50", "setting": "RPMI-8226", "value": "> 100 µM (inactive)"}, {"measurement": "GI50", "setting": "RXF 393", "value": "> 100 µM (inactive)"}, {"measurement": "GI50", "setting": "RXF 631", "value": "> 100 µM (inactive)"}, {"measurement": "GI50", "setting": "SF-268", "value": "> 100 µM (inactive)"}, {"measurement": "GI50", "setting": "SF-295", "value": "> 100 µM (inactive)"}, {"measurement": "GI50", "setting": "SK-MEL-28", "value": "> 100 µM (inactive)"}, {"measurement": "GI50", "setting": "SK-MEL-2", "value": "> 100 µM (inactive)"}, {"measurement": "GI50", "setting": "SK-MEL-5", "value": "> 100 µM (inactive)"}, {"measurement": "GI50", "setting": "SK-OV-3", "value": "> 100 µM (inactive)"}, {"measurement": "GI50", "setting": "SN12C", "value": "> 100 µM (inactive)"}, {"measurement": "GI50", "setting": "SNB-19", "value": "> 100 µM (inactive)"}, {"measurement": "GI50", "setting": "SNB-75", "value": "> 100 µM (inactive)"}, {"measurement": "GI50", "setting": "SNB-78", "value": "> 100 µM (inactive)"}, {"measurement": "GI50", "setting": "SW-620", "value": "> 100 µM (inactive)"}, {"measurement": "GI50", "setting": "TK-10", "value": "> 100 µM (inactive)"}, {"measurement": "GI50", "setting": "U-251", "value": "> 100 µM (inactive)"}, {"measurement": "GI50", "setting": "UACC-257", "value": "> 100 µM (inactive)"}, {"measurement": "GI50", "setting": "UACC-62", "value": "> 100 µM (inactive)"}, {"measurement": "GI50", "setting": "UO-31", "value": "> 100 µM (inactive)"}]}]}
